Laboratory results published in US10070660B2, “Pet food palatability with antimicrobial properties based on organic acids” (KEMIN INDUSTRIES, INC., priority 2012, dated 2018).

How the values were obtained:
[1] = tested on: Salmonella (five Salmonella enterica serovars); assay: Dog kibble challenge with dried five strain Salmonella cocktail inoculum; format: cell-based
Protocol: One ml of each Salmonella culture was separately inoculated into a beaker containing tempered (ambient), sterilized MBM which was then incubated at 37° C. for 48 hours. Inoculated MBM was dispensed (approx. 200 g) into sterile 250 ml centrifuge bottles and centrifuged at 5,000 rpm for 10 minutes. The supernatant was decanted and autoclaved for disposal. The pellets were suspended in 10 ml TSB-20% glycerol. Suspensions (approximately 150-160 g) were transferred to sterilized 250 ml polycarbonate straight side wide mouth jars with lids (Nalgene, Thermo Scientific). Jars containing MBM-Salmonella suspensions were immediately frozen at −70° C. for 1 hour. Frozen MBM-Salmonella suspensions were lyophilized using a FreeZone-1 Liter benchtop freeze dry system (Labconco) (approx. 96 hours, −50° C.). Each lyophilized Salmonella culture was pulverized to a fine powder using a sterile mortar and pestle. Twenty g of each of the five lyophilized Salmonella cultures was combined in a sterile wide mouth glass jar to make the dried Salmonella cocktail inoculum. […] Solidified plates were incubated inverted at 37° C. for 16-18 hours. Visible colonies were counted and colony forming units per gram were calculated (CFU/g). […] Kibble and inoculum were mixed together for five minutes by hand in a plastic zip top bag, and allowed to rest for 1 hour prior to sampling. Coated, un-inoculated kibble was also included in the study and tested for Salmonella (direct plating and FDA BAM), total aerobic bacteria, mold and yeast counts, pH, percent moisture, and water activity. For each analysis time point challenged kibble was sampled in triplicate. Kibbles were stored at ambient temperature.
Challenged kibble samples bags were mixed thoroughly, then 5.00 g (±0.01) was aseptically weighed into a sterile plastic bag and diluted with 45 ml sterile Phosphate Buffer (Butterfield) diluent (BPB) containing (g/l) KH2PO4 34.0, pH adjusted to 7.2 with 1N sodium hydroxide and homogenized using a Stomacher (Seward Stomacher 80) for 1 minute and serially diluted in BPB for plating. The plates are poured with tempered (45° C.) XLD agar. After solidification, plates were inverted and placed in an incubator (37° C.). Colonies were counted and CFU/g was calculated. The counts for each triplicate sample were averaged and expressed as log CFU/g. Those samples of which were below the detection limit of <10 CFU/g were assigned 0 log CFU/g for the purpose of statistical analysis. Analysis of Variance using the LSD separation of means method was performed to analyze the data using StatGraphics software (StatPoint Technologies, Inc. Warrenton, Va.).
Dry dog palatants were formulated with fumaric acid or SBS to deliver 0.5% acid to the surface of the kibble. The effect of each acid on Salmonella challenged on the surface of dog kibble was examined. Dog kibbles were challenged with dried five strain Salmonella cocktail inoculum.
The effect of each acid on Salmonella challenged on the surface of dog kibble was examined. Dog kibbles were challenged with dried five strain Salmonella cocktail inoculum prep.

Salmonella spp. = assay: Cat palatant solutions (15% w/v) challenged with liquid Salmonella spp. inoculum; format: cell-based, Salmonella enterica
Protocol: In the Phase 3 experiment described below, solutions (15% w/v) of cat palatant samples were challenged with a “Low” concentration (1,000 CFU/ml) and a “High” concentration (1,000,000 CFU/ml) of a liquid Salmonella spp. inoculum in an effort to evaluate the antimicrobial effect of each palatant. Salmonella was enumerated from each palatant at three time points after challenge; immediately, 24 hours and 6 days.
Preparation of palatant samples. Four samples of a cat palatant formulated with varying levels of fumaric acid (Table 6) were aseptically weighed in duplicate sterile 50 ml conical test tubes. To each test tube, 10 ml of sterile deionized water was added and mixed by vortex. The pH of a 5% (w/v) solution of each palatant was also measured (Table 6).
Five Salmonella enterica serovars [S. enterica (ATTC® 51741™), Montevideo (ATCC® 8387™), Typhimurium (ATCC® 14028™), Senftenberg (ATCC® 43845™), Schwarzengrund (4012)] were kept as frozen stocks at −70° C. in Bacto™ Tryptic Soy Broth (TSB) with 20% (w/v) glycerol. One vial of each culture was thawed at room temperature and 0.100 ml was transferred to […] (pH 7.2) containing (g/l) pancreatic digest of casein: 17, enzymatic digest of soybean meal: 3, sodium chloride, 5, dipotassium phosphate: 2.5, dextrose, 2.5, then incubated at 37° C. for 24 hours on a platform shaker set at 190 rpm. One ml of each overnight culture was diluted in 9 ml 0.85% saline and enumerated using a Petroff Hauser Counting Chamber. Each culture was further diluted in 0.85% saline to obtain two concentrations of inoculum; 100,000 CFU/ml (Low) and 100,000,000 CFU/ml (High).
One hundred μl of each Low and High diluted Salmonella inoculum was pipetted into one of each duplicate palatant tubes to obtain one tube with 1,000 CFU/ml (Low) and one tube with […] (High). Samples were analyzed immediately after challenging, 24 hours and 6 days after storage at 25° C.
Each tube of palatant was vortexed prior to serially diluting. Dilutions were pipetted into sterile petri plates. The plates were poured with tempered (45° C.) XLD agar. After solidification, plates were inverted and placed in an incubator (37° C.). Colonies were counted and CFU/ml was calculated. Detection limit of the method was 1 CFU/ml.

O=C(O)/C=C/C(=O)O [Fumaric Acid, fumaric acid]
Salmonella ([1]; Table 15, 0.50% on dog kibble, day 0): 1.98 ± 0.14^Ca log CFU/g
Salmonella ([1]; Table 15, 0.50% on dog kibble, day 1): 1.10 ± 0.10^Cb log CFU/g
Salmonella ([1]; Table 15, 0.50% on dog kibble, day 3): 0.77 ± 0.39^Abc log CFU/g
Salmonella ([1]; Table 15, 0.50% on dog kibble, day 7): 0.33 ± 0.33^Bcd log CFU/g
Salmonella ([1]; Table 15, 0.50% on dog kibble, day 9): 0.33 ± 0.33^Bcd log CFU/g
Salmonella ([1]; Table 15, 0.50% on dog kibble, day 14): 0.00 ± 0.00^Bd log CFU/g
Salmonella ([1]; Table 15, 0.50% on dog kibble, day 21): 0.00 ± 0.00^Bd log CFU/g
Salmonella ([1]; Table 17, total of 0.5% acid on dog kibble, day 0): 1.99 ± 0.22^CDa log CFU/g
Salmonella ([1]; Table 17, total of 0.5% acid on dog kibble, day 1): 0.43 ± 0.43^Bb log CFU/g
Salmonella ([1]; Table 17, total of 0.5% acid on dog kibble, day 6): 0.00 ± 0.00^Bb log CFU/g
Salmonella ([1]; Table 17, total of 0.5% acid on dog kibble, day 14): 0.00 ± 0.00^Bb log CFU/g
Salmonella ([1]; Table 17, total of 0.5% acid on dog kibble, day 21): 0.00 ± 0.00^Bb log CFU/g
Salmonella counts on challenged dog kibble vs control palatant (in words) ([1]; dog kibble challenge): significantly lower Salmonella counts than the control and SBS formula
Salmonella counts (Salmonella spp.; High inoculation (1,000,000 CFU/ml), 14% fumaric, day 0): <1 CFU/ml
Salmonella counts (Salmonella spp.; High inoculation, 14% fumaric, day 1): <1 CFU/ml
Salmonella counts (Salmonella spp.; High inoculation, 14% fumaric, day 6): <1 CFU/ml
Salmonella counts (Salmonella spp.; High inoculation, 20% fumaric, day 0): <1 CFU/ml
Salmonella counts (Salmonella spp.; High inoculation, 20% fumaric, day 1): <1 CFU/ml
Salmonella counts (Salmonella spp.; High inoculation, 20% fumaric, day 6): <1 CFU/ml
Salmonella counts (Salmonella spp.; High inoculation, 27% fumaric, day 0): <1 CFU/ml
Salmonella counts (Salmonella spp.; High inoculation, 27% fumaric, day 1): <1 CFU/ml
Salmonella counts (Salmonella spp.; High inoculation, 27% fumaric, day 6): <1 CFU/ml
Salmonella counts (Salmonella spp.; Low inoculation (1,000 CFU/ml), 14% fumaric in palatant, day 0): <1 CFU/ml
Salmonella counts (Salmonella spp.; Low inoculation, 14% fumaric, day 1): <1 CFU/ml
Salmonella counts (Salmonella spp.; Low inoculation, 14% fumaric, day 6): <1 CFU/ml
Salmonella counts (Salmonella spp.; Low inoculation, 20% fumaric, day 0): <1 CFU/ml
Salmonella counts (Salmonella spp.; Low inoculation, 20% fumaric, day 1): <1 CFU/ml
Salmonella counts (Salmonella spp.; Low inoculation, 20% fumaric, day 6): <1 CFU/ml
Salmonella counts (Salmonella spp.; Low inoculation, 27% fumaric, day 0): <1 CFU/ml
Salmonella counts (Salmonella spp.; Low inoculation, 27% fumaric, day 1): <1 CFU/ml
Salmonella counts (Salmonella spp.; Low inoculation, 27% fumaric, day 6): <1 CFU/ml
